Test results: paper PMC7933434, “Entropy-driven binding of gut bacterial β-glucuronidase inhibitors ameliorates irinotecan-induced toxicity” (Communications Biology, 2021)
Entries after “also recorded” stand apart in the source; their conditions may differ.

Experiments:
[1] = target: T1, GUS activity in live E. coli cells (Escherichia coli, UniProt P05804); assay: GUS activity in live E. coli cells; type: cell-based; details: E. coli cells (OD600 = 1.89) treated for 30 min, then GUS activity measured
T1 construct: endogenous in cells
T1 sequence (P05804 whole entry): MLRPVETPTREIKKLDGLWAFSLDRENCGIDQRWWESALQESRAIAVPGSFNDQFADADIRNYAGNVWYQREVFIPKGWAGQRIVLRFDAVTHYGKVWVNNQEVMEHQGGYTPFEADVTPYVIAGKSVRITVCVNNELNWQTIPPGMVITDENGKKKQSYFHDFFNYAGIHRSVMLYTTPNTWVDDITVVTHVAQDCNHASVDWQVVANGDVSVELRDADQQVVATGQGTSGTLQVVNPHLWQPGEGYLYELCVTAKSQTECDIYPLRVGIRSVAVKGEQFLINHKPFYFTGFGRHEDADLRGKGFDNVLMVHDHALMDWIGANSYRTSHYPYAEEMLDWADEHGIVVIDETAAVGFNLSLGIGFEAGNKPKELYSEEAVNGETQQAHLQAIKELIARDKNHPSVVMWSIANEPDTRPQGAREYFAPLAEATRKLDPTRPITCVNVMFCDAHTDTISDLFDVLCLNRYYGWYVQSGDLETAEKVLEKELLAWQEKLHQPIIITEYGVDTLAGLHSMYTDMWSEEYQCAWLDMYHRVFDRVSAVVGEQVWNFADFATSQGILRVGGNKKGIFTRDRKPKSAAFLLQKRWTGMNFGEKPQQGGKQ
Procedure: To examine if inhibitors 2–4 could inhibit GUS activity in vivo, E. coli cells (OD600 = 1.89) were treated with each of 2–4 for 30 min, after which GUS activity was measured. […]; 3, 18.6 nM; and 4, 3.69 nM (Supplementary Fig. 9a). […]. […] Additionally, to evaluate cell viability, E. coli cultures were treated with ampicillin (positive control), DMSO, or inhibitors 2–4 (100 μM) for 6 h.
Supplementary Figure 9 Inhibitors 2–4 sho w in hi biti on ag ai n st G US acti vity in l i ve E. co li cell s. (a) GUS activity was measured in live E. coli. Af t e r E. coli were incubated with DMSO or an inhibitor ( 2–4), GUS activity was measured using 4-methylumbelliferyl-β-glucuronide as the substrate. The release of fluorescent 4-methylumbelliferone was detected at 445 nm (excitation, 345 nm). Compared with the negative c ont rol (DMSO ), […]
[…]. (b) Colony formation assay. None of the inhibitors affected bacterial growth. As a negative control, E. coli cells were incubated with ampicillin (100 μg/mL). Results are expressed as the mean of triplicate samples ± SEM.
(1 picture or pasted object on this page, not shown here)

[2] = design: method as in PMID 18537837; details: endocyclic amine; cited from earlier work
BALB/c mice [3] = assay: In vivo diarrhea test (CPT-11); design: species or system mouse; details: BALB/c mice, 10 days
BALB/c mice [4] = assay: Colon histology (hematoxylin and eosin) after oral gavage; type: in vivo, mouse; details: female BALB/c mice; oral gavage for 5 days; 3 at 37.5 mg per kg body weight, ASN03273363 at 65 mg
[5] = test system: H184B5F5/M10 non-cancerous human mammary epithelial cells; assay: In vitro cytotoxicity, [3H]thymidine incorporation, H184B5F5/M10; type: cell-based; details: 0.001–100 μM for 24 h
[6] = test system: GM637 non-cancerous human fibroblasts; assay: In vitro cytotoxicity, [3H]thymidine incorporation, GM637; type: cell-based; details: GM637 cells; 0.001–100 μM for 24 h
[7] = test system: intestinal bacterial GUSs; assay: In vivo imaging of GUS activity (FDGiCu probe); design: species or system mouse; details: BALB/c mice; oral gavage of inhibitor, then 500 µg FDGiCu intravenously
Procedure: . […] The mice were then sacrificed and the intestines removed. […] In addition, we performed real-time in vivo gastrointestinal inhibition of bacterial GUSs using whole-body in vivo imaging (Fig. 4a and Supplementary Figs. 11, 12). The mice were gavaged in the same manner as described above. Following the final gavage, 500 µg of FDGiCu (fluorescein-di-β-D-glucuronide as a non-fluorescent probe) was injected intravenously. Upon digestion by intestinal bacterial GUSs, FDGiCu is hydrolyzed to produce fluorescein (as the hydrolyzed product) that can be detected as fluorescence in the intestinal region. […]. Mice were treated for 10 days. […]
Mice were given 3 via oral gavage. […] The hydrolysis product (fluorescein) generated in the gut was quantified over a 2 h period by in vivo imaging (excitation 465 nm, emission 520 nm). The maximum fluorescein fluorescence was observed 60 min after injection of vehicle control. At 2 h post injection, most of the FDGiCu has been excreted and thus fluorescence is reduced. The region of interest (ROI) was analyzed with Living Image Software. b Effect of inhibitor 3 to protect against diarrhea caused by CPT-11. Diarrhea severity was scored as described in methods. […] The intensity of hydrolyzed fluorescein was assessed by in vivo imaging system (Caliper Life Sciences) and quantified as GUS activity. […]

With `CCC[C@@H]1NC[C@@H](O)[C@H](O)[C@H]1C(=O)O` [Inhibitor 2, C6-propyl UIFG] as the molecule, how does the IC50 [1] read?
Its IC50 is 1200 nM.

And the pKa [2]?
The pKa was 9.4.

With `CCCCCCCCC[C@@H]1NC[C@@H](O)[C@H](O)[C@H]1C(=O)O` [Inhibitor 4, C6-nonyl UIFG] as the molecule, how does the IC50 [1] read?
The IC50 was 3.69 nM.

Which results are given for `CCCCCC[C@@H]1NC[C@@H](O)[C@H](O)[C@H]1C(=O)O` [Inhibitor 3, C6-hexyl UIFG]?
diarrhea (BALB/c mice [3]; CPT-11 30 mg per kg daily with inhibitor 3 5.8 µg orally twice per day): diarrhea was significantly suppressed; also recorded: significantly reduced diarrhea; diarrhea (BALB/c mice [3]; inhibitor 3 only, 5.8 µg given orally twice per day): neither the negative control nor inhibitor 3 caused diarrhea; health of the epithelial layer and intestinal glandular structure (hematoxylin and eosin staining) (BALB/c mice [4]): neither compound affected the health of the epithelial layer or the intestinal glandular structure; IC50 [1]: 18.6 nM; cytotoxicity [5]: No cytotoxicity was evident; cytotoxicity [6]: No cytotoxicity was evident; fluorescein fluorescence in the intestinal region (gut bacterial GUS activity) [7]: Reduced fluorescence

Which pKa [2] does the source give for `O=C(O)[C@H]1CNC[C@@H](O)[C@@H]1O` [Inhibitor 1, Uronic isofagomine] here?
Its pKa is 8.0.
